# Activity calls are given as the source filed them. The calls are words filed in the database; no cut-off is given here.
# Columns and labels:
# [1] = biological target: T1, Bromodomain-containing protein 4 (Homo sapiens, UniProt O60885); assay: Inhibition of His-tagged BRD4 bromodomain 2 (unknown origin) using [Lys (5,8,12,16) Ac] H4(1-21) as substrate by fluorescence based assay
# Histone deacetylase 1 = Histone deacetylase 1 (Homo sapiens, UniProt Q13547); assay: Inhibition of HDAC1 (unknown origin) by fluorescence based assay
# Sequence of Histone deacetylase 1 (Q13547 whole entry): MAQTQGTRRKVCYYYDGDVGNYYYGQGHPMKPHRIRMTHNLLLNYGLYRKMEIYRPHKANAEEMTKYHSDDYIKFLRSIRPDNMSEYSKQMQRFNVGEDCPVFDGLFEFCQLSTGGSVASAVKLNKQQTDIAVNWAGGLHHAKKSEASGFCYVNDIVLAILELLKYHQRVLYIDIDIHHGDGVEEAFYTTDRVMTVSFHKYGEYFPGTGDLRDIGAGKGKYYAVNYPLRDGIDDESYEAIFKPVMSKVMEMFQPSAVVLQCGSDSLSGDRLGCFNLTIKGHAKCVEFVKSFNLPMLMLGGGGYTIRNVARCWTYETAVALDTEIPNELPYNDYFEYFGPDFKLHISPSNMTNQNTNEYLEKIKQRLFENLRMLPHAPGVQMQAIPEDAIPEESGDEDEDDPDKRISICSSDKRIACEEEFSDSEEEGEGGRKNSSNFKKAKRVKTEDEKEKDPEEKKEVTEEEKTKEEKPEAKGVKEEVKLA
# [2] = biological target: T1, Bromodomain-containing protein 4; assay: Inhibition of His-tagged BRD4 bromodomain 1 (unknown origin) using [Lys (5,8,12,16) Ac] H4(1-21) as substrate by fluorescence based assay
# MV4-11 = assay: Antiproliferative activity against human MV4-11 cells assessed as cell viability after 72 hrs by CCK8 assay; assay type: functional, cell-based; conditions: MV4-11, 72 h
# [3] = biological target: T2, Protein deacetylase HDAC6 (Homo sapiens, UniProt Q9UBN7); assay: Inhibition of HDAC6 (unknown origin) by fluorescence based assay
# T2 sequence (Q9UBN7 whole entry): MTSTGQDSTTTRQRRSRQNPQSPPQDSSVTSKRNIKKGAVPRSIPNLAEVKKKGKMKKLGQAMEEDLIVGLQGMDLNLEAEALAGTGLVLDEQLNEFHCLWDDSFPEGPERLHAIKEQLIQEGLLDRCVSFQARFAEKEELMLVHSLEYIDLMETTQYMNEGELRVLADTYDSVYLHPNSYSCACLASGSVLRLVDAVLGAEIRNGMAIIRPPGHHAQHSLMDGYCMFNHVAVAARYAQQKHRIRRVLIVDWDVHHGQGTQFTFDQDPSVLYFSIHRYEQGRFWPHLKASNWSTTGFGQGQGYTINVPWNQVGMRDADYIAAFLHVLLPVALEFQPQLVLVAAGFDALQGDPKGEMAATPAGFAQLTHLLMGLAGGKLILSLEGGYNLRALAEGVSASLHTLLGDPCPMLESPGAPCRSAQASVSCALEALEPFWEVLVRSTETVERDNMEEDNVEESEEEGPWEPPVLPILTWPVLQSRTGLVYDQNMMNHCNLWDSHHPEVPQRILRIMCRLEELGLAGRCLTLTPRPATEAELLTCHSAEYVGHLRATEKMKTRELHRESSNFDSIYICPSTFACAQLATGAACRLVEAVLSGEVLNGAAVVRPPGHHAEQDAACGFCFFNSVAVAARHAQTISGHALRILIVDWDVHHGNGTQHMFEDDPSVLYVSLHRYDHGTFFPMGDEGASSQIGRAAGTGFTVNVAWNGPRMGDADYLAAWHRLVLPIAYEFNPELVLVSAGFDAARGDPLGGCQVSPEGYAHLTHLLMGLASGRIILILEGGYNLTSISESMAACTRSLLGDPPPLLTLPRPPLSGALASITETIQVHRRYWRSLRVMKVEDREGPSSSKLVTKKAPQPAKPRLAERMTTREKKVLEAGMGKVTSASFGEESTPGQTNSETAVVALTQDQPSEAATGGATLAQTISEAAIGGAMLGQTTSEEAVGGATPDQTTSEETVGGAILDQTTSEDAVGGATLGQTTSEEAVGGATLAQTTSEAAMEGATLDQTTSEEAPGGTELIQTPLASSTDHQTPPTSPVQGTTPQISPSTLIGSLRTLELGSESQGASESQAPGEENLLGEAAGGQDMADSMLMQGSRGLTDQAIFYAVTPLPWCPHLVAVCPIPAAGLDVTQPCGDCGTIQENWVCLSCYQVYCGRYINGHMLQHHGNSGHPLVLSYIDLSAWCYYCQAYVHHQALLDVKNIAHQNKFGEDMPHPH
# [4] = biological target: T1, Bromodomain-containing protein 4; assay: Inhibition of BRD4 in human MV4-11 cells assessed as reduction in c-Myc expression at 10 to 1000 nM measured after 24 hrs by Western blot analysis; assay type: cell-based; conditions: dose 10-1000 nM
Structure (SMILES),IC50 [1] [nM],IC50 (Histone deacetylase 1) [nM],IC50 [2] [nM],IC50 (MV4-11) [nM],IC50 [3] [nM],inhibition [4]
Cn1cc(-c2ccccc2Cl)c2cc(C(=O)NCc3ccc(C(=O)Nc4ccccc4N)cc3)[nH]c2c1=O,206,48.8,102,–,–,–
O=C(CCCCCCC(=O)Nc1ccccc1)NO [VORINOSTAT],> 10000,–,> 10000,–,–,–
Cn1cc(-c2ccc(C(F)(F)F)cc2)c2cc(C(=O)NCc3ccc(C(=O)Nc4ccccc4N)cc3)[nH]c2c1=O,364,240,146,–,–,–
Cn1cc(-c2ccc(Cl)cc2)c2cc(C(=O)NCc3ccc(C(=O)Nc4ccccc4N)cc3)[nH]c2c1=O,278,59.3,62.4,–,–,–
Cn1cc(-c2ccccc2)c2cc(C(=O)NCc3ccc(C(=O)Nc4ccccc4N)cc3)[nH]c2c1=O,75.8,52,47.8,230,–,–
Cn1cc(-c2ccccc2Oc2ccccc2)c2cc(C(=O)NCCCCCC(=O)NO)[nH]c2c1=O,3.8,44.4,21.4,610,3.4,Active
Cn1cc(-c2ccccc2Oc2ccccc2)c2cc(C(=O)NCCCCC(=O)Nc3ccccc3N)[nH]c2c1=O,11.3,> 500,73,240,> 500,–
Cc1sc2c(c1C)C(c1ccc(Cl)cc1)=N[C@@H](CC(=O)Nc1ccc(O)cc1)c1nnc(C)n1-2 [BIRABRESIB],–,> 10000,–,200,> 10000,–
Cn1cc(-c2cccc(Cl)c2)c2cc(C(=O)NCc3ccc(C(=O)Nc4ccccc4N)cc3)[nH]c2c1=O,158,134,65.5,190,–,–
Nc1ccccc1NC(=O)c1ccc(CNC(=O)OCc2cccnc2)cc1 [ENTINOSTAT],> 10000,–,> 10000,240,–,–
COc1ccc(-c2cn(C)c(=O)c3[nH]c(C(=O)NCc4ccc(C(=O)Nc5ccccc5N)cc4)cc23)cc1,61.2,46.8,40.5,320,–,–
Cn1cc(-c2cc(C(C)(C)O)ccc2OC2CC2)c2cc(C(=O)NCCCCCCC(=O)NO)[nH]c2c1=O,5.8,29.8,26.2,220,5.5,–
Cn1cc(-c2cccc(C(F)(F)F)c2)c2cc(C(=O)NCc3ccc(C(=O)Nc4ccccc4N)cc3)[nH]c2c1=O,313,> 500,823,–,–,–
Cn1cc(-c2ccccc2C(F)(F)F)c2cc(C(=O)NCc3ccc(C(=O)Nc4ccccc4N)cc3)[nH]c2c1=O,571,210,371,–,–,–
Cn1cc(-c2ccccc2Oc2ccccc2)c2cc(C(=O)NCCCCCCC(=O)Nc3ccccc3N)[nH]c2c1=O,15.4,> 500,140,130,> 500,–
Cn1cc(-c2ccccc2Oc2ccccc2)c2cc(C(=O)NCCCC(=O)NO)[nH]c2c1=O,103,> 500,142,380,144,–
Cn1cc(-c2ccccc2Oc2ccccc2)c2cc(C(=O)NCCCCCC(=O)Nc3ccccc3N)[nH]c2c1=O,8.4,176,583,70,> 500,–

# Further lines, results first:
IC50 [1] [nM],IC50 (Histone deacetylase 1) [nM],IC50 [2] [nM],IC50 (MV4-11) [nM],IC50 [3] [nM],inhibition [4],Structure (SMILES)
55.3,20.8,85.9,230,–,–,Cn1cc(-c2ccccc2F)c2cc(C(=O)NCc3ccc(C(=O)Nc4ccccc4N)cc3)[nH]c2c1=O
116,54.5,30.1,250,–,–,COc1cccc(-c2cn(C)c(=O)c3[nH]c(C(=O)NCc4ccc(C(=O)Nc5ccccc5N)cc4)cc23)c1
7.2,52,54,250,8.7,–,Cn1cc(-c2cc(C(C)(C)O)ccc2Oc2ccc(F)cc2F)c2cc(C(=O)NCCCCCCC(=O)NO)[nH]c2c1=O
149,63.9,117,310,–,–,Cc1ccccc1-c1cn(C)c(=O)c2[nH]c(C(=O)NCc3ccc(C(=O)Nc4ccccc4N)cc3)cc12
7,333,3.9,420,–,–,COc1ccc(C(C)(C)O)cc1-c1cn(C)c(=O)c2[nH]c(C(=O)NCc3ccc(C(=O)Nc4ccccc4N)cc3)cc12
79.9,47.3,44.1,220,–,–,Cn1cc(-c2ccc(F)cc2)c2cc(C(=O)NCc3ccc(C(=O)Nc4ccccc4N)cc3)[nH]c2c1=O
3,229,13.4,100,–,–,Cn1cc(-c2cc(C(C)(C)O)ccc2Oc2ccccc2)c2cc(C(=O)NCc3ccc(C(=O)Nc4ccccc4N)cc3)[nH]c2c1=O
105,54.9,52.8,–,–,–,Cc1cccc(-c2cn(C)c(=O)c3[nH]c(C(=O)NCc4ccc(C(=O)Nc5ccccc5N)cc4)cc23)c1
1.5,293,305,440,39.3,–,Cc1cc(F)cc(C)c1Oc1ccc(C(C)(C)O)cc1-c1cn(C)c(=O)c2[nH]c(C(=O)NCc3ccc(C(=O)NO)cc3)cc12
2.1,68.8,7.7,40,–,–,Cn1cc(-c2cc(C(C)(C)O)ccc2OC2CC2)c2cc(C(=O)NCc3ccc(C(=O)Nc4ccccc4N)cc3)[nH]c2c1=O
15.3,116,22.8,130,–,–,CC(C)Oc1ccccc1-c1cn(C)c(=O)c2[nH]c(C(=O)NCc3ccc(C(=O)Nc4ccccc4N)cc3)cc12
30,28.1,20,2200,–,–,Cn1cc(-c2cccc(C(C)(C)O)c2)c2cc(C(=O)NCc3ccc(C(=O)Nc4ccccc4N)cc3)[nH]c2c1=O
75.9,53.1,50.9,210,–,–,Cn1cc(-c2cccc(F)c2)c2cc(C(=O)NCc3ccc(C(=O)Nc4ccccc4N)cc3)[nH]c2c1=O
–,> 10000,–,250,> 10000,–,CCNC(=O)c1cc2c(-c3cc(C(C)(C)O)ccc3Oc3c(C)cc(F)cc3C)cn(C)c(=O)c2[nH]1 [ABBV-744]
1.5,164,18.1,90,–,–,Cn1cc(-c2cc(C(C)(C)O)ccc2Oc2ccc(F)cc2F)c2cc(C(=O)NCc3ccc(C(=O)Nc4ccccc4N)cc3)[nH]c2c1=O
6.9,20.8,252,420,7.9,–,Cn1cc(-c2cc(C(C)(C)O)ccc2OC2CC2)c2cc(C(=O)NCc3ccc(C(=O)NO)cc3)[nH]c2c1=O
122,94,61,–,–,–,Cc1ccc(-c2cn(C)c(=O)c3[nH]c(C(=O)NCc4ccc(C(=O)Nc5ccccc5N)cc4)cc23)cc1
36.6,> 500,229,240,–,–,Cc1cc(F)cc(C)c1Oc1ccc(C(C)(C)O)cc1-c1cn(C)c(=O)c2[nH]c(C(=O)NCc3ccc(C(=O)Nc4ccccc4N)cc3)cc12
10,36,31.3,350,52,–,CC(C)Oc1ccc(C(C)(C)O)cc1-c1cn(C)c(=O)c2[nH]c(C(=O)NCc3ccc(C(=O)NO)cc3)cc12
47.6,57.6,22.6,200,–,–,COc1ccccc1-c1cn(C)c(=O)c2[nH]c(C(=O)NCc3ccc(C(=O)Nc4ccccc4N)cc3)cc12
12.4,74,76.7,190,15.6,–,Cn1cc(-c2cc(C(C)(C)O)ccc2Oc2ccc(F)cc2F)c2cc(C(=O)NCc3ccc(C(=O)NO)cc3)[nH]c2c1=O
